Experimental data reported in patent publication US6656920B2, “Composition and method for promoting oral health” (Amarillo Biosciences, Inc., priority 2000, dated 2003).

Tests used:
[1] = test system: subjects with Sjögren's syndrome; conditions: at 24 weeks, 30 subjects per group, p<0.001; cited from earlier work
[2] = test system: subjects with Sjögren's syndrome; conditions: no sustained benefit in controlled clinical trials; cited from earlier work
[3] = test system: subjects with primary Sjögren's syndrome; assay: Phase 3 trial, 24 weeks, IFN lozenges versus 200 mg CAM placebo lozenges; assay type: in vivo, human
Text: (§1) The purposes of our investigations were to examine the safety and efficacy of four different dosages of IFN lozenges compared to placebo in subjects with primary Sjögren's syndrome over a 12-week period in a Phase 2 trial, and to examine the best dose from our Phase 2 trial in a 24-week Phase 3 trial. The primary endpoints of our Phase 2 and Phase 3 trials were measurements of unstimulated saliva and stimulated saliva and subjective assessments of dry mouth. The IFN-α was delivered to the patients in 200 mg lozenges consisting of crystalline anhydrous maltose (CAM). The placebo was 200 mg CAM without IFN in both (Phase 2 and Phase 3) clinical trials. […] The IFN-treated group did even better (73% and 81%, respectively), but the beneficial effect of CAM on UWS was striking. […] Not only will this benefit patients with Sjögren's syndrome, but CAM should benefit people with dry mouth from other causes.

[4] = test system: subjects with primary Sjögren's syndrome; assay: Phase 2 trial, 12 weeks, four dosages of IFN lozenges versus CAM placebo; assay type: in vivo, human; conditions: Phase 2, placebo (200 mg CAM) treated patients
Text: as §1

For sucralfate, the “subjects with ≧100% increase from baseline in stimulated whole salivary flow” value [1] is given as 3%.

For `CC[C@@H]1C(=O)OC[C@@H]1Cc1cncn1C` [pilocarpine], the salivary output [2] is given as “increase salivary output transiently”.

With `OC[C@H]1O[C@H](O[C@H]2[C@H](O)[C@@H](O)[C@H](O)O[C@@H]2CO)[C@H](O)[C@@H](O)[C@@H]1O` [CAM, crystalline anhydrous maltose] the “overall result of lozenge administration” value ([3]; 200 mg maltose lozenges three times daily) was “Good results”, the “patients with an increase in unstimulated whole saliva (UWS)” value ([3]; Phase 3, after 6 months of daily treatment, 200 mg lozenges) was 63.3% and the “patients with an increase in UWS by 12 weeks” value [4] was 9 of 18.

In the case of `CC1OC2(CS1)CN1CCC2CC1` (stereo not shown) [cevimeline], the salivary output [2] is listed as “increase salivary output transiently”.

In the case of `CN(Cc1cc(Br)cc(Br)c1N)C1CCCCC1` [bromhexine], the salivary output [2] is listed as “increase salivary output transiently”.
